Source: patent US20110028447A1, “INDAZOLE DERIVATIVES” (Pfizer Inc., priority 2008, published 2011)
Where two headings read alike, the source gives them in different places.

Experiments:
human CB1 receptor [1] = target: T1, human CB1 receptor (Homo sapiens, UniProt P21554); assay: Human CB1 receptor binding, [3H] CP-55,940 displacement on HEK cell membranes; parameters: expressed in transfected cells; host or cells: HEK cells, doxycycline-induced; membrane preparation
Method in brief: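 Membranes from doxycycline-induced HEK cells expressing human CB1 incubated 60 min at room temperature with [3H] CP-55,940 (final […]) in 50 mM Tris pH 7.4, 100 mM NaCl, 3 mM MgCl2, 0.2 mM EGTA, 0.04% BSA. Nonspecific binding defined with 50 μM WIN-55,212-2; filtration and scintillation counting gave EC50 and Ki.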

human CB1 receptor [2] = target: T1, human CB1 receptor; assay: [35S] GTPγS binding on membranes of CHO cells expressing the human CB1 receptor (agonism); assay type: biochemical; parameters: expressed in transfected cells; membrane preparation
Description: Membrane preparation: CHO cells expressing the human CB1 receptor were grown to 80% confluence in Ham's F-12 Nutrient Medium (Invitrogen) containing 10% fetal bovine serum (Invitrogen), 1% pen/strep (Invitogen), 1% Nonessential amino acids (Invitrogen) and 500 μg/ml G418 (Invitrogen). Cells were released from flasks using Cell Dissociation Buffer (Invitrogen). Cells were pelleted by centrifugation at 500×G for 5 minutes. Membranes were prepared by resuspending cells in ice cold Assay Buffer (25 mM Tris pH 7.4, 5 mM EDTA, 5 mM EGTA, Complete Protease Inhibitor (Roche)). Cells were lysed with 12 strokes of a dounce homogenizer. Unlysed cells were pelleted by centrifugation at 500×G for 5 minutes. Membranes were pelleted by centrifugation at 25,000×G for 30 minutes. Membranes were resuspended in TEE, dounced 12 strokes, and pelleted a second time at 25,000×G for 30 minutes. Membrane pellet was resuspended in 50 mM Tris pH 7.4, 100 mM NaCl, 3 mM MgCl2, 0.2 mM EGTA, Complete Protease Inhibitor (Roche). Protein concentration was determined using the Micro-BCA Protein Assay Kit (Pierce) using BSA as a standard. Membranes were frozen and stored at −80 degrees Celsius until use.
GTPγS Binding: 40 μl of test compound was incubated with 20 μl of [^35S] GTPγS (Perkin Elmer) (1250 Ci/millimole) and 140 μl of membrane homogenate (5 μg/well) in polypropylene 96-well plates (Corning). Final reaction conditions were 50 mM Tris pH 7.4, 100 mM NaCl, 3 mM MgCl2, 0.2 mM EGTA, 0.04% BSA. After incubation at 37 degrees Celsius for 45 minutes reactions were harvested by vacuum filtration through Unifilter GF/B-96 filters (Perkin Elmer) using a FilterMate Plate Harvester (Perkin Elmer). Filters were rinsed 4 times with ice cold 50 mM Tris pH 7.4, 3 mM MgCl2, 0.2 mM EGTA and dried at 50 degrees Celsius for at least 30 minutes. 40 μl of Microscint-20 (Perkin Elmer) was added per well, and plates were counted using a Top-Count Microplate Scintillation Counter (Perkin Elmer). Binding data were analyzed and EC50 values were calculated using Graph Pad Prism 4.0 Software.

[3] = GTPγS EC50, human CB1, CHO cell membranes
[4] = human CB1, CHO cell membranes, read-out: GTPγS EC50

T1 sequence (P21554 whole entry): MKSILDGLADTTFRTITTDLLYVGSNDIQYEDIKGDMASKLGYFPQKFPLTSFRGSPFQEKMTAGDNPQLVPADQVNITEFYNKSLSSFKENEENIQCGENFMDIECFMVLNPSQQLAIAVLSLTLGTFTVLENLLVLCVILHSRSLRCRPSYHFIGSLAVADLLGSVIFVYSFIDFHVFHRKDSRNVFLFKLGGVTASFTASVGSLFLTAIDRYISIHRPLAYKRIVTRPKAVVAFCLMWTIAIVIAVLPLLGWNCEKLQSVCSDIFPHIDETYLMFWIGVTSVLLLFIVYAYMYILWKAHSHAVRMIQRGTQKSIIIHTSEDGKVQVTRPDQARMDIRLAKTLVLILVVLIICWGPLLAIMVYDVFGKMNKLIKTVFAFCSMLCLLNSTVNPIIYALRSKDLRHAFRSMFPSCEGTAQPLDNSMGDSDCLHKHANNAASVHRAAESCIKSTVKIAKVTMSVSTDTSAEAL

SMILES	Ki (human CB1 receptor [1]; CB1 Ki)	EC50 (human CB1 receptor [2]; [3])	Ki (human CB1 receptor [1]; read-out: CB1 Ki)	EC50 (human CB1 receptor [2]; [4])
CC(C)(C)C(NC(=O)c1nn(Cc2ccc(F)cc2)c2ccccc12)C(=O)NC1(CO)CC1 (stereo not drawn) [Example 160]	1.45 nM	32.3 nM		
CC(C)(C)C(NC(=O)c1nn(Cc2ccc(C#N)cc2)c2ccc(F)cc12)C(N)=O (stereo not drawn) [Example 163]	4.45 nM	180 nM		
CC(C)(C)C(NC(=O)c1nn(Cc2ccc(C#N)cc2)c2ccc(F)cc12)C(=O)NCCO (stereo not drawn) [Example 166]	5.14 nM	132 nM		
CC(C)(C)C(NC(=O)c1nn(Cc2ccc(F)cc2)c2ccc(F)cc12)C(N)=O (stereo not drawn) [Example 170]	0.27 nM	0.7 nM		
CC(C)(C)C(NC(=O)c1nn(Cc2ccc(F)cc2)c2ccc(F)cc12)C(=O)NC1CC1 (stereo not drawn) [Example 171]	0.42 nM	0.44 nM		
CC(C)(C)C(NC(=O)c1nn(Cc2ccc(F)cc2)c2ccc(F)cc12)C(=O)NCCO (stereo not drawn) [Example 172]	0.42 nM	0.42 nM		
CC(C)(C)C(NC(=O)c1nn(Cc2ccc(F)cc2)c2ccc(F)cc12)C(=O)NCC(N)=O (stereo not drawn) [Example 173]	2.37 nM	5.12 nM		
CC(C)(C)C(NC(=O)c1nn(Cc2ccc(F)cc2)c2ccc(F)cc12)C(=O)NCCCO (stereo not drawn) [Example 174]	1.1 nM	1.81 nM		
CC(C)(C)C(NC(=O)c1nn(Cc2ccc(F)cc2)c2c(F)cccc12)C(N)=O (stereo not drawn) [Example 175]	0.19 nM	0.64 nM		
CC(C)(C)C(NC(=O)c1nn(Cc2ccc(F)cc2)c2c(F)cccc12)C(=O)NC1CC1 (stereo not drawn) [Example 176]	0.22 nM	0.51 nM		
CC(C)(C)C(NC(=O)c1nn(Cc2ccc(F)cc2)c2c(F)cccc12)C(=O)NCCO (stereo not drawn) [Example 177]	0.28 nM	0.31 nM		
CC(C)(C)C(NC(=O)c1nn(Cc2ccc(F)cc2)c2c(F)cccc12)C(=O)NCCCO (stereo not drawn) [Example 178]	0.56 nM	1.61 nM		
CC(C)(C)C(NC(=O)c1nn(Cc2ccc(F)cc2)c2c(F)cccc12)C(=O)NCC(N)=O (stereo not drawn) [Example 179]	0.87 nM	5.41 nM		
CC(C)(C)C(NC(=O)c1nn(Cc2ccc(F)cc2)c2c(F)cccc12)C(=O)NCc1nnc(C(N)=O)o1 (stereo not drawn) [Example 180]			0.37 nM	3.81 nM
CC(C)(C)C(NC(=O)c1nn(Cc2ccc(F)cc2)c2c(Cl)cccc12)C(N)=O (stereo not drawn) [Example 181]	0.1 nM	0.33 nM		
CC(C)(C)C(NC(=O)c1nn(Cc2ccc(F)cc2)c2c(Cl)cccc12)C(=O)NC1CC1 (stereo not drawn) [Example 182]	0.34 nM	2.23 nM		
CC(C)(C)C(NC(=O)c1nn(Cc2ccc(F)cc2)c2c(Cl)cccc12)C(=O)NCCO (stereo not drawn) [Example 183]	0.26 nM	0.83 nM		
CC(C)(C)C(NC(=O)c1nn(Cc2ccc(F)cc2)c2c(Cl)cccc12)C(=O)NCCCO (stereo not drawn) [Example 184]	0.37 nM	3.94 nM		
CC(C)(C)C(NC(=O)c1nn(Cc2ccc(F)cc2)c2c(Cl)cccc12)C(=O)NCC(N)=O (stereo not drawn) [Example 185]	0.51 nM	10.2 nM		
CC(C)(C)C(NC(=O)c1nn(Cc2ccc(F)cc2)c2c(F)cccc12)C(=O)NCCNS(=O)(=O)C1CC1 (stereo not drawn) [Example 186]			0.19 nM	1.03 nM
CC(C)(C)[C@H](NC(=O)c1nn(Cc2ccc(F)cc2)c2c(Cl)cccc12)C(=O)NCCNS(=O)(=O)C1CC1 [Example 187]			0.09 nM	1.09 nM
CC(C)(C)C(NC(=O)c1nn(Cc2ccc(C#N)cc2)c2c(Cl)cccc12)C(=O)NC1CC1 (stereo not drawn) [Example 198]	1.19 nM	7.07 nM		
CC(C)(C)C(NC(=O)c1nn(Cc2ccc(C#N)cc2)c2c(Cl)cccc12)C(=O)NCCO (stereo not drawn) [Example 199]	1.32 nM	8.94 nM		

SMILES	Ki (human CB1 receptor [1]; CB1 Ki)	EC50 (human CB1 receptor [2]; [3])	Ki (human CB1 receptor [1]; read-out: CB1 Ki)	EC50 (human CB1 receptor [2]; [4])
CC(C)(C)C(NC(=O)c1nn(Cc2ccc(C#N)cc2)c2c(Cl)cccc12)C(=O)NCCCO (stereo not drawn) [Example 200]	4.8 nM	35 nM		
CC(C)(C)C(NC(=O)c1nn(Cc2ccc(C#N)cc2)c2c(Cl)cccc12)C(=O)NCC(N)=O (stereo not drawn) [Example 201]	14.2 nM	70.1 nM		
CC(C)(C)C(NC(=O)c1nn(Cc2ccc(C#N)cc2)c2c(Cl)cccc12)C(=O)NCCNS(=O)(=O)C1CC1 (stereo not drawn) [Example 202]			0.8 nM	3.07 nM
CC(C)(C)C(NC(=O)c1nn(Cc2ccc(C#N)cc2)c2c(Cl)cccc12)C(=O)NCC(O)CO (stereo not drawn) [Example 203]	10.2 nM	63.2 nM		
CC(C)(C)[C@H](NC(=O)c1nn(Cc2ccc(F)cc2)c2ccccc12)C(=O)NCC1CCOCC1 [Example 211]	3.08 nM	18.3 nM		
CC(C)(C)[C@H](NC(=O)c1nn(Cc2ccc(C#N)cc2)c2c(F)cccc12)C(=O)N1Cc2ccccc2C1 [Example 213]			15.7 nM	57.7 nM
CC(C)(C)[C@H](NC(=O)c1nn(Cc2ccc(C#N)cc2)c2c(F)cccc12)C(=O)N1CC(O)C1 [Example 214]	3.87 nM	23.4 nM		
CC(C)(C)[C@H](NC(=O)c1nn(Cc2ccc(C#N)cc2)c2c(F)cccc12)C(=O)N[C@@H](CO)c1ccccc1 [Example 215]			7.69 nM	41.3 nM
CC(C)(C)[C@H](NC(=O)c1nn(Cc2ccc(F)cc2)c2ccccc12)C(=O)NCc1nn[nH]n1 [Example 218]	7.92 nM	360 nM		
CC(C)(C)[C@H](NC(=O)c1nn(Cc2ccc(F)cc2)c2ccccc12)C(=O)N1CCN(C(N)=O)CC1 [Example 220]			1.26 nM	3.78 nM
CC(C)(C)[C@H](NC(=O)c1nn(Cc2ccc(F)cc2)c2ccccc12)C(=O)N1CCC(CO)CC1 [Example 223]	1.12 nM	4.76 nM		
CC(C)(C)[C@H](NC(=O)c1nn(Cc2ccc(F)cc2)c2ccccc12)C(=O)N1CCC(CCO)CC1 [Example 224]			6.77 nM	19.3 nM
CC(C)(C)[C@H](NC(=O)c1nn(Cc2ccc(F)cc2)c2ccccc12)C(=O)N1CCC(C(N)=O)CC1 [Example 225]			6.3 nM	26.9 nM
CC(C)(C)[C@H](NC(=O)c1nn(Cc2ccc(F)cc2)c2c(Cl)cc(Cl)cc12)C(N)=O [Example 226]	0.18 nM	0.73 nM		
CC(C)(C)[C@H](NC(=O)c1nn(Cc2ccc(F)cc2)c2ccccc12)C(=O)N1CCN(C(=O)CCC(N)=O)CC1 [Example 228]			4.26 nM	15.1 nM
CC(C)(C)[C@H](NC(=O)c1nn(Cc2ccc(F)cc2)c2ccccc12)C(=O)N[C@@H](CO)C(N)=O [Example 230]	6.5 nM	31.4 nM		
CC(C)(C)[C@H](NC(=O)c1nn(Cc2ccc(F)cc2)c2ccccc12)C(=O)NCCc1nnc(C(N)=O)o1 [Example 231]			2.25 nM	5.12 nM
CC(C)(C)[C@H](NC(=O)c1nn(Cc2ccc(F)cc2)c2ccccc12)C(=O)N1CCN(CC(O)CO)CC1 (stereo partly drawn) [Example 233]			2.45 nM	11.5 nM
COC(=O)[C@@H](CO)NC(=O)[C@@H](NC(=O)c1nn(Cc2ccc(F)cc2)c2ccccc12)C(C)(C)C [Example 234]	13.4 nM	36.1 nM		
COC(=O)[C@H](CO)NC(=O)[C@@H](NC(=O)c1nn(Cc2ccc(F)cc2)c2ccccc12)C(C)(C)C [Example 236]	0.94 nM	3.91 nM		
COC(=O)[C@@H](O)CNC(=O)[C@@H](NC(=O)c1nn(Cc2ccc(F)cc2)c2ccccc12)C(C)(C)C [Example 238]	6.46 nM	25.7 nM		
CC(C)(C)[C@H](NC(=O)c1nn(Cc2ccc(F)cc2)c2ccccc12)C(=O)NC(CO)CO [Example 241]	1.65 nM	5.72 nM		
